From patent US8828682B2, “Methods and articles for detecting hemolytic microorganisms” (priority 2008, dated 2014)
Like-named read-outs stand apart in the source and are kept apart here.

How the values were obtained:
[1] = tested on: methicillin-resistant S. aureus (strain 565, clinical isolate); assay type: cell-based, Staphylococcus aureus; settings: 35° C., 10% sheep blood in PBS
Protocol: (§1) Antibiotic stock solutions (3 mg/mL and 4 mg/mL) were individually prepared in DI water. The solutions were filter-sterilized. The antibiotics included cefoxitin, cefazolin, and cefuroxime. The antibiotics were diluted 1:1000 into PBS/sheep blood aliquots to achieve final antibiotic concentrations of 3 μg/mL and 4 μg/mL, respectively.
(§2) The bacterial suspensions were subjected to two serial 1:100 dilutions in sterile PBS. The diluted suspensions were then further subjected to a 1:100 dilution into each of the respective PBS/sheep blood mixtures containing an antibiotic. One milliliter of each final suspension; containing sheep blood, microorganisms, and an antibiotic in PBS; was into a PAC plate as described above. The plates were incubated at 35° C. for 48 hours. Each plate was checked for colony growth and hemolytic zone after 24 and 48 hours of incubation.

[2] = tested on: methicillin-resistant S. epidermidis (strain 497, clinical isolate); test: Growth and hemolysis in PAC thin film culture plates with antibiotic in PBS/10% sheep blood diluent; assay type: cell-based, Staphylococcus epidermidis; settings: 35° C., 10% sheep blood in PBS
Protocol: as §1, §2

CO[C@@]1(NC(=O)Cc2cccs2)C(=O)N2C(C(=O)O)=C(COC(N)=O)CS[C@@H]21 [Cefo, cefoxitin]
+/+: Growth ([1]; antibiotic 3 μg/mL, 24 hours) | Hemolysis ([1]; antibiotic 3 μg/mL, 24 hours) | Growth ([1]; antibiotic 3 μg/mL, 48 hours) | Hemolysis ([1]; antibiotic 3 μg/mL, 48 hours) | Growth ([1]; antibiotic 4 μg/mL, 24 hours) | Hemolysis ([1]; antibiotic 4 μg/mL, 24 hours) | Growth ([1]; antibiotic 4 μg/mL, 48 hours) | Hemolysis ([1]; antibiotic 4 μg/mL, 48 hours) | Growth ([2]; antibiotic 3 μg/mL, 24 hours) | Growth ([2]; antibiotic 3 μg/mL, 48 hours) | Growth ([2]; antibiotic 4 μg/mL, 24 hours) | Growth ([2]; antibiotic 4 μg/mL, 48 hours)

CO/N=C(\C(=O)N[C@@H]1C(=O)N2C(C(=O)O)=C(COC(N)=O)CS[C@H]12)c1ccco1 [Cefu, cefuroxime]
+/+: Growth ([1]; antibiotic 3 μg/mL, 24 hours) | Hemolysis ([1]; antibiotic 3 μg/mL, 24 hours) | Growth ([1]; antibiotic 3 μg/mL, 48 hours) | Hemolysis ([1]; antibiotic 3 μg/mL, 48 hours) | Growth ([1]; antibiotic 4 μg/mL, 24 hours) | Hemolysis ([1]; antibiotic 4 μg/mL, 24 hours) | Growth ([1]; antibiotic 4 μg/mL, 48 hours) | Hemolysis ([1]; antibiotic 4 μg/mL, 48 hours) | Growth ([2]; antibiotic 3 μg/mL, 24 hours) | Growth ([2]; antibiotic 3 μg/mL, 48 hours) | Growth ([2]; antibiotic 4 μg/mL, 24 hours) | Growth ([2]; antibiotic 4 μg/mL, 48 hours)
